Legend:
[1] = Ferric reducing antioxidant power (FRAP) assay; conditions: Table 9, mean ± SEM, n = 3;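 further: Ferrous-TPTZ reduction read as absorbance at 593 nm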
Description: The capacity of antioxidants to decrease ferric iron is measured by this method. The reaction of […] (TPTZ) and complex ferric iron yields ferrous form at low pH. […] This method was adopted from the reports of Benzie et al..

[2] = DPPH scavenging activity; conditions: Table 6, mean ± SEM, n = 3
Description: Solutions of synthesized compounds were set in ethanol/water (1:1) having 10 mM to 100 mM at a period of 10 mM. The 0.01% DPPH· stock solution was prepared in ethanol/water (1:1). Samples were prepared as 5 mL DPPH· solution was mixed with 5 mL L-ascorbic acid solution then shaken vigorously and kept in the dark. Corresponding blank sample were prepared and L-ascorbic acid was used as reference standard. […] The actual decrease in absorption induced by the test was compared with the positive controls. The IC50 values were calculated use the dose inhibition curve in linear range by plotting the extract concentration versus the corresponding scavenging effect through following equation [(ADR − APR)/AO] × 100. Where ADR is the absorbance prior to reaction and APR is the absorbance after reaction with DPPH·.

[3] = Nitric oxide scavenging activity; conditions: Table 8, mean ± SEM, n = 3
Text: The generation of nitric oxide (NO·) on biological tissues is mediated by particular nitric oxide synthases enzyme that control the catabolism of the arginine to citrulline via creation of NO through a five electron oxidative reaction. At the physiological pH (7.2) in aqueous solution sodium nitroprusside decompose to produce NO·. Finally, NO· reacts with oxygen at underaerobic conditions and produces stable products (nitrate and nitrite), this amount can be determined by means of Griess reagent. The procedure for the nitric oxide scavenging activity was adopted from reports of Alam et al..

[4] = target: T1, hMAO-B (Homo sapiens, UniProt P27338); test: Recombinant human MAO-B inhibition screening (Amplex Red, p-tyramine); type: biochemical; conditions: p-tyramine substrate, mean SEM
T1 construct: purchased Sigma-Aldrich; host or cells: insect cells (BTI-TN-5B14) infected with recombinant baculovirus
T1 sequence (P27338 1-520): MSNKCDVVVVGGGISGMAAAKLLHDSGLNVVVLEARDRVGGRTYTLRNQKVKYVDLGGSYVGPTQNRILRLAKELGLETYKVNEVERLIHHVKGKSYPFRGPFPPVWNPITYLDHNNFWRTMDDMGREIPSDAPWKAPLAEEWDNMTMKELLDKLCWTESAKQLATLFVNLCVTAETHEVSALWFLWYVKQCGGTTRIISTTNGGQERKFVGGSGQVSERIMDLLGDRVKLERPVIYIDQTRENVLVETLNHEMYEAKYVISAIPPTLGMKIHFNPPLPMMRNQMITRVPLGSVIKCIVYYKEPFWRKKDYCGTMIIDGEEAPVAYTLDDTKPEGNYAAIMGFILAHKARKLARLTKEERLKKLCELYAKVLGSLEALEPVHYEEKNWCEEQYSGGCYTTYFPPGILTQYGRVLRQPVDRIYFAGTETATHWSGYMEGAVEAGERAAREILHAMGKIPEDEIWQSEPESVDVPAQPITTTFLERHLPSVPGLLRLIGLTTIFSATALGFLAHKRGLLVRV
Text: (§1) To evaluate IC50 values for the inhibition of human MAO-A and MAO-B by newly synthesized compounds the commercially available recombinant human enzymes expressed in insect cells were used (Sigma-Aldrich). The MAO inhibition assay was based on the method described by Anderson et al., 1993 and Chimenti et al. with some modifications. The Amplex Red MAO Kit tyramine (Sigma-Aldrich) affords a suitable fluorimetric method to evaluate MAO enzyme action of synthetic and natural compounds. In the assay, MAO reacts with p-tyramine, a common substrate for both MAO isoforms, ensuing in the production of H2O2, which is identified by a fluorimetric method (λex = 530/λem = 585 nm). Each test well contained 0.1 mL of sodium phosphate buffer (0.05 M, pH 7.4), a range of concentrations of the eugenol based derivatives or reference compounds along with recombinant hMAO-A or hMAO-B in appropriate quantity. After the preparation of this mixture the wells were subjected to incubation for 15 min at 37 °C, placed in the dark fluorimeter chamber. Once this incubation period over, the process was rendered by mixing 200 µM Amplex Red reagent (Sigma-Aldrich), 1 U/mL horseradish peroxidase (Sigma-Aldrich) and p-tyramine (Sigma-Aldrich). Subsequently, the formation of hydrogen peroxide exerted by MAO isoforms was quantified by using Amplex-Red reagent, a non-fluorescent probe that reacts with H2O2 in the existence of horse radish peroxidase to generate the fluorescent component resorufin. Moreover, the control analysis was calculated in the absence of compound and reference inhibitors. The probability of compounds to change the fluorescence produced in the reaction mix due to non-enzymatic inhibition was assessed by mixing titled compounds to solutions of single Amplex Red reagent in a sodium phosphate buffer. Data were processed in Microsoft Excel, to calculate IC50 values.

[5] = Hydrogen peroxide scavenging (H2O2) assay; conditions: Table 7, mean ± SEM, n = 3
Description: Hydrogen peroxide generally turns into water and oxygen and produces highly toxic hydroxyl radical that renders the damage to DNA and peroxidation of lipid. H2O2 scavenging ability of eugenol based derivatives was evaluated by method described by Nakano and colleagues with some alteration. The hydrogen peroxide solution (40 mM) was prepared in phosphate buffer (40 mM pH 7.4) and addition of several ranges of synthesized derivatives (05–80 μg/mL) was done into H2O2 solution (2 mL). The determination of H2O2 concentration was done by UV/Vis Epoch ELISA reader at 230 nm upon incubation of 10 min. Solution of phosphate buffer without H2O2 was noted as blank reading. The hydrogen peroxide percentage inhibition was estimated through the formula [(AH − AD)/AO] × 100, where AH is the absorbance of the control and AD is the absorbance of compounds/reference taken as 05–80 μg/mL L-ascorbic acid.

[6] = target: T2, hMAO-A (Homo sapiens, UniProt P21397); test: Recombinant human MAO-A inhibition screening (Amplex Red, p-tyramine); type: biochemical; conditions: for Selectivity index: IC50 (MAO-A)/IC50 (MAO-B); for IC50: recombinant hMAO-A, p-tyramine substrate, mean SEM
T2 construct: purchased Sigma-Aldrich; host or cells: insect cells (BTI-TN-5B14) infected with recombinant baculovirus
T2 sequence (P21397 1-527): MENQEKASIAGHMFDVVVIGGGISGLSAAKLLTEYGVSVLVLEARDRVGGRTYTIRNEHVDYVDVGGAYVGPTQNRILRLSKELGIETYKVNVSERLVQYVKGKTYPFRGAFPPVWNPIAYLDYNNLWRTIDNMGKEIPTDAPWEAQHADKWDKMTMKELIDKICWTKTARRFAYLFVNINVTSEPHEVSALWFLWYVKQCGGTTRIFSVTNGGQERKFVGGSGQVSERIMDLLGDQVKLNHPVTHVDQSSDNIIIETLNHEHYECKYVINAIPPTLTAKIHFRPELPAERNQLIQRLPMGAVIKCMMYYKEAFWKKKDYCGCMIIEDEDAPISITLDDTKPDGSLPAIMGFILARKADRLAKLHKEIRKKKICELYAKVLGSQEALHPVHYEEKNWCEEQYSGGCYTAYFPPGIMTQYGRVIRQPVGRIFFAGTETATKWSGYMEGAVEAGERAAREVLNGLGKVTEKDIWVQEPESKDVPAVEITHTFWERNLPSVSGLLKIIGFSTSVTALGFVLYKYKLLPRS
Text: as §1

| Compound | FRAP IC50 [1] [µg/mL] | DPPH scavenging IC50 [2] [µg/mL] | Nitric oxide scavenging IC50 [3] [µg/mL] | IC50 [4] [µM] | H2O2 scavenging IC50 [5] [µg/mL] | Selectivity index [6] | IC50 [6] [µM] | melting point [°C] |
| --- | --- | --- | --- | --- | --- | --- | --- | --- |
| 1-(2-(4-allylphenoxy)acetyl)-4-(4-hydroxybenzoyl)thiosemicarbazide [Compound 5a] | 5.934 ± 0.053 | 9.152 ± 0.063 | 7.156 ± 0.002 | 29.37 ± 0.048 | 9.156 ± 0.002 | 0.53 | 15.85 ± 0.039 | – |
| C=CCc1ccc(OCC(=O)NNC(=S)NC(=O)c2cc(O)c(O)c(O)c2)c(OC)c1 [Compound 5b] | 5.112 ± 0.009 | 8.304 ± 0.073 | 6.456 ± 0.023 | 31.19 ± 0.016 | 8.904 ± 0.034 | 0.19 | 5.989 ± 0.007 | – |
| C=CCc1ccc(OCC(=O)NNC(=O)c2ccccc2O)c(OC)c1 [Compound 9a, N′-(2-(4-allyl-2-methoxyphenoxy)acetyl)-2-hydroxybenzohydrazide] | 7.234 ± 0.001 | 9.514 ± 0.017 | 9.007 ± 0.014 | 47.7 ± 0.073 | 9.547 ± 0.051 | 0.22 | 10.84 ± 0.025 | 230 to 231 |
| C=CCc1ccc(OCC(=O)NNC(=O)c2ccccc2S)c(OC)c1 [Compound 9b, N′-(2-(4-allyl-2-methoxyphenoxy)acetyl)-2-mercaptobenzohydrazide] | 9.912 ± 0.005 | 9.293 ± 0.028 | 8.095 ± 0.018 | 27.85 ± 0.054 | 9.393 ± 0.017 | 0.59 | 16.62 ± 0.004 | 210 to 211 |
| C=CCc1ccc(OCC(=O)NNC(=O)c2ccccn2)c(OC)c1 [Compound 11, N′-(2-(4-allyl-2-methoxyphenoxy)acetyl)picolinohydrazide] | 9.126 ± 0.013 | 11.21 ± 0.044 | 10.71 ± 0.743 | 26.8 ± 0.077 | 10.33 ± 0.022 | 0.67 | 18.06 ± 0.044 | 204 to 205 |
| C=CCc1ccc(OC(=O)c2ccc(O)c(OC)c2)c(OC)c1 [Compound 13a, 4-allyl-2-methoxyphenyl 4-hydroxy-3-methoxybenzoate] | 18.14 ± 0.001 | 20.66 ± 0.032 | 20.23 ± 0.073 | 7.494 ± 0.014 | 26.6 ± 0.544 | 5.14 | 38.53 ± 0.018 | 199 to 200 |

From article PMC6661809, “Lead optimization for promising monoamine oxidase inhibitor from eugenol for the treatment of neurological disorder: synthesis and in silico based study” (BMC Chemistry, 2019)
